Results: US12590056B2, “IGF2BP2 inhibitors and uses thereof” (CITY OF HOPE, priority 2020, dated 2026)
Entries after “also recorded” stand apart in the source; their conditions may differ.

How the values were obtained:
IGF2BP2 [1] = molecular target: T1, IGF2BP2 (Homo sapiens, UniProt Q9Y6M1); experiment: Biological assays of IGF2BP2 inhibition (purified fractions and synthesized compounds); details: for effectiveness, synthesized compound: compounds synthesized based on the predicted structures
T1 sequence (Q9Y6M1 whole entry, the tested form may be a part): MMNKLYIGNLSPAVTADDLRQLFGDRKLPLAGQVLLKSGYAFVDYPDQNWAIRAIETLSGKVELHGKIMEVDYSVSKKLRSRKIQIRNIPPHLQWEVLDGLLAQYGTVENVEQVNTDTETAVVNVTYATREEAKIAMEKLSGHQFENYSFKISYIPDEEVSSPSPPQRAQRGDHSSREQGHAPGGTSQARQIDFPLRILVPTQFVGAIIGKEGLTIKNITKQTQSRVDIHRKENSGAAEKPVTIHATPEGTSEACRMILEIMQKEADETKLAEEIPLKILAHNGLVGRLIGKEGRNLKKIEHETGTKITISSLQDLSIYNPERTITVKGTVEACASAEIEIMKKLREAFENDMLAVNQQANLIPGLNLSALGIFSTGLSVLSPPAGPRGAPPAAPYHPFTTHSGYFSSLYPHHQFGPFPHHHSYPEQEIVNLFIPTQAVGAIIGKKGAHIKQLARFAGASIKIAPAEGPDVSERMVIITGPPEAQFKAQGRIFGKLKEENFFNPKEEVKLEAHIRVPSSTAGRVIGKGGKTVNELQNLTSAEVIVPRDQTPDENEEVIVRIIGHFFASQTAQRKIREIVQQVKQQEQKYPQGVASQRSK
From the text: (§1) Virtual screening of library compounds and lead compound identification. NCI DTP library of approximately 260,000 compounds was screened. Screening included docking on the KH3 domain of IGF2BP2. Over 500 compounds were identified for experimental validation. NSC69557, termed CWI1, was identified as a top hit. Mass spectrometry (MS) identified CWI1 as a mixture including three major peaks: CWI1, CWI1-1, and CWI1-2. Their structures were predicted based on nuclear magnetic resonance (NMR) and MS data. The compound peaks for the predicted CWI1-1 and CWI1-2 were purified by HPLC. […] CWI1, CWI1-1, and CWI1-2 were synthesized based on the predicted structures. […] Thus, the structures of CWI1-1 and CWI1-2 were confirmed.

KH3 domain of IGF2BP2 = molecular target: T2, KH3 domain of IGF2BP2 (Homo sapiens, UniProt Q9Y6M1); experiment: Virtual screening of NCI DTP library (docking) followed by experimental validation; details: approximately 260,000 compounds screened, over 500 taken to experimental validation
T2 construct: Screening included docking on the KH3 domain of IGF2BP2
T2 sequence (Q9Y6M1 427-492 limits assumed): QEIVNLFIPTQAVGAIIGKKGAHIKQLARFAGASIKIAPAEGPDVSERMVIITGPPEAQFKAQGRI
From the text: as §1

IGF2BP2 [2] = molecular target: T1, IGF2BP2; experiment: Cellular Thermal Shift Assay (CETSA); assay type: binding; details: CETSA also run for IGF2BP1 and IGF2BP3; western blot
Method: FIGS. 2A-2C. […] Cellular Thermal Shift Assay (CETSA) was conducted. The principle of the assay is unbound proteins denature and precipitate at elevated temperatures, while drug-bound proteins tend to remain in solution. Cells are seeded and treated. Cell pellets are washed, harvested, and heated. Cells are lysed and centrifuged. Western blot is performed. FIG. 2A: Results of CETSA for IGF2BP2. FIG. 2B: Results of CETSA for IGF2BP1. FIG. 2C: Results of CETSA for IGF2BP3.

IGF2BP2 [3] = molecular target: T1, IGF2BP2; experiment: Drug Affinity Responsive Target Stability (DARTS) assay; assay type: binding; details: protection from degradation by proteases
Method: FIG. 3. […] Drug Affinity Responsive Target Stability (DARTS) assay was performed. The principle of the assay is binding of compound to proteins protects proteins from degradation by proteases.

[4] = molecular target: IGF2BP2 binding to m^6A-modified single strand RNA (SS-m^6A) (Homo sapiens, UniProt Q9Y6M1); experiment: RNA pull-down assay; assay type: biochemical
IGF2BP2 binding to m^6A-modified single strand RNA (SS-m^6A), sequence (Q9Y6M1 whole entry): as the sequence (Q9Y6M1 whole entry, the tested form may be a part) above
From the text: (§2) FIGS. 4A-4B. CWI1-2 inhibits binding of IGF2BP2 to m^6A-modified RNA and suppresses expression of the oncogenic targets of IGF2BP2.

IGF2BP2 target genes = experiment: Expression of IGF2BP2 target genes and of IGF2BP2 after treatment; assay type: cell-based; details: after compound treatment
From the text: as §2

[5] = system: IGF2BP2-high AML cell lines; experiment: Apoptosis in IGF2BP2-high AML cell lines; assay type: cell-based, human; details: 24-hour treatment
From the text: (§3) FIGS. 6A-6B. Effects of CWI1-2 on apoptosis in human acute myeloid leukemia (AML) cells.

[6] = system: IGF2BP2-low acute leukemia cell lines; experiment: Apoptosis in IGF2BP2-low acute leukemia cell lines; assay type: cell-based, human; details: 24-hour treatment
From the text: as §3

[7] = system: IGF2BP2-high AML cell lines; experiment: Cell differentiation in IGF2BP2-high AML cell lines; assay type: cell-based, human; details: 24-hour treatment
From the text: (§4) FIGS. 7A-7B. Effects of CWI1-2 on cell differentiation in acute myeloid leukemia (AML).

[8] = system: IGF2BP2-low acute leukemia cell lines; experiment: Cell differentiation in IGF2BP2-low acute leukemia cell lines; assay type: cell-based; details: 24-hour treatment
From the text: as §4

[9] = system: primary murine MLL-AF9 AML cells; experiment: Engraftment of AML cells in bone marrow transplant (BMT) recipient mice; assay type: in vivo; details: 5 mg/kg, i.v., daily for 7 days from ten days after BMT; peripheral blood 3 days after last treatment, flow cytometry
Method: (§5) FIGS. 8A-8B. […] FIG. 8A: Ten days after BMT with primary murine MLL-AF9 AML cells, recipient mice were given vehicle control (CT) or CWI1-2 daily for 7 days (5 mg/kg, i.v.). Peripheral blood was taken 3 days after the last treatment and assessed by flow cytometry.

[10] = Body weight of BMT recipient mice; assay type: in vivo; details: 5 mg/kg, i.v., daily for 7 days
Method: as §5

[11] = system: human acute myeloid leukemia (AML) cells; experiment: Anti-cancer activity in vitro (viability of human AML cells); assay type: cell-based
From the text: FIGS. 5A-5E. IC50 of the lead compound CWI1-2 in human acute myeloid leukemia (AML) cells. FIG. 5A: Relative viability vs. CWI1-2 concentration in healthy bone marrow #1. FIG. 5B: Relative viability vs. CWI1-2 concentration in healthy bone marrow #2. FIG. 5C: Relative viability vs. CWI1-2 concentration in AML blast cells collected from a primary AML patient. FIG. 5D: Relative survival vs. log10 concentration of CWI1-2 in IGF2BP2-high AML cell lines. FIG. 5E: Relative survival vs. log10 concentration of CWI1-2 in IGF2BP2-low AML cell lines.

SMILES	effectiveness, synthesized compound (IGF2BP2 [1])	hit ranking in library screening (KH3 domain of IGF2BP2)	binding to IGF2BP2 (CETSA) (IGF2BP2 [2])	binding to IGF2BP2 (DARTS) (IGF2BP2 [3])	binding of IGF2BP2 to m^6A-modified RNA in the presence of compound [4]	IGF2BP2 expression (IGF2BP2 target genes)	expression of IGF2BP2 target genes (IGF2BP2 target genes)	apoptosis [5]	apoptosis [6]	cell differentiation [7]	cell differentiation [8]	engraftment of AML cells in BMT recipient mice [9]	effect on body weight of recipient mice [10]	anti-cancer activity in vitro [11]	activity as inhibitor of IGF2BP2, HPLC-purified fraction (IGF2BP2 [1]; fractions purified by HPLC from the NSC69557 mixture)
N/C(=N\N=C\c1cc(Cl)ccc1O)N/N=C\c1cc(Cl)ccc1O [CWI1]	less effective	top hit													
NN/C(=N\N=C\c1cc(Cl)ccc1O)N/N=C\c1cc(Cl)ccc1O [CWI1-1]	effective														
Oc1ccc(Cl)cc1/C=N\N/C(=N/N=C/c1cc(Cl)ccc1O)N/N=C/c1cc(Cl)ccc1O [CWI1-2]	much more effective		direct and preferential binding; also recorded: specifically binds to IGF2BP2	direct and preferential binding	decreased binding of IGF2BP2 to m^6A-modified single strand RNA (SS-m^6A); also recorded: prevent IGF2BP2 from binding to its mRNA targets; also recorded: specifically inhibits binding of IGF2BP2 to its mRNA targets with m^6A modification	without affecting IGF2BP2 expression	reduces expression of IGF2BP2 target genes; also recorded: suppressing expression of its oncogenic targets such as MYC oncogene	induces remarkable apoptosis; also recorded: significantly promoted	much less likely	induces remarkable cell differentiation; also recorded: significantly promoted	much less likely	inhibits engraftment; also recorded: remarkably inhibit engraftment	little effect on body weight	potent anti-cancer activities in vitro at nanomolar concentrations; also recorded: potent anti-cancer efficacy	most active inhibitor of IGF2BP2
